Data reported in patent publication US7297682B2, “Diphosphate salt of a 4″—substituted-9-deoxo-9 A—AZA—homoerythromycin derivatives and its pharmaceutical composition” (Pfizer Inc., priority 1999, dated 2007).
Counter-ions that a name gives are not always drawn.

How the values were obtained:
physchem = format: physicochemical; conditions: water
[1] = hygroscopicity: water uptake and water content versus relative humidity (VTI, Karl Fisher); format: physicochemical
Method: The crystalline diphosphate salt gradually absorbs water to about 13% at 87% relative humidity with a rapid uptake of water to about 48% occurring at about 90% relative humidity. Thermogravametric analysis on the diphosphate salt discloses that three waters are lost by about 75° C., a fourth water is lost by about 120° C., the fifth water is lost by about 170° C., and the final three waters are lost by about 200° C. The maximum number of water molecules necessary for the stabilization of the crystalline lattice appears to be about eight. Drying the diphosphate salt in about 70° C. in air or about 45° C. in a vacuum removed the water leaving a pseudomorph.
Drying in the VTI at 20-25° C. indicated a weight loss of 10%; the dried salt gradually adsorbed water to 15% at 85% RH (relative humidity), followed by a rapid uptake to 48% at 90% RH. At 90% RH, the compound deliquesced.
The mobility of the water within the crystalline lattice is directly related to the relative humidity of the environment the diphosphate salt comes in contact with. For example, at about 87% relative humidity, the compound contains about 13% water; at 60% relative humidity the compound contains about 8% water; and at 40% relative humidity the diphosphate salt contains about 5% water (all calculations by KF).
Both the liquid crystal and the crystalline form of the diphosphate were hygroscopic. When attempts were conducted in hydrophilic solvents, the addition of 4% to 5% (v/v) water to the amorphous slurry caused the compound to crystallize as an octahydate.

Row | Structure (SMILES) | solubility (physchem) [mg/mL] | water adsorbed (gradual) by dried salt ([1]; after drying in the VTI at 20-25° C., at 85% RH) [%] | rapid uptake of water by dried salt ([1]; after drying in the VTI at 20-25° C., at 90% RH) [%] | water content (by KF) ([1]; at 40% relative humidity) | water content (by KF) ([1]; at 60% relative humidity) | water absorbed (gradual) ([1]; at 87% relative humidity) | behaviour at high humidity ([1]; at 90% RH) | water content (by KF) ([1]; at about 87% relative humidity) | rapid uptake of water ([1]; at about 90% relative humidity) | hygroscopicity [1]
1 | CCCNC[C@]1(O)C(C)OC(OC2C(C)C(=O)OC(CC)[C@@](C)(O)[C@H](O)[C@@H](C)NC[C@H](C)C[C@](C)(O)[C@H](OC3OC(C)CC(N(C)C)[C@H]3O)C2C)C[C@@]1(C)OC (stereo partly drawn) [crystalline diphosphate salt, (2R,3S,4R,5R,8R,10R,11R,12S,13S,14R)-13-[[2,6-dideoxy-3-C-methyl-3-O-methyl-4-C-[(propylamino)methyl]-α-L-ribo-hexopryanosyl]oxy]-2-ethyl-3,4,10-trihydroxy-3,5,8,10,12,14-hexamethyl-11-[[3,4,6-trideoxy-3-(dimethylamino)-β-D-xylo-hexopyranosyl]oxy]-1-oxa-6-azacyclopentadecan-15-one diphosphate] | ~280 | 15 | 48 | about 5% | about 8% | about 13% | deliquesced | about 13% | about 48% | 
2 | CCCNC[C@]1(O)C(C)OC(OC2C(C)C(=O)OC(CC)[C@@](C)(O)[C@H](O)[C@@H](C)NC[C@H](C)C[C@](C)(O)[C@H](OC3OC(C)CC(N(C)C)[C@H]3O)C2C)C[C@@]1(C)OC (stereo partly drawn) [liquid crystal, (2R,3S,4R,5R,8R,10R,11R,12S,13S,14R)-13-[[2,6-dideoxy-3-C-methyl-3-O-methyl-4-C-[(propylamino)methyl]-α-L-ribo-hexopryanosyl]oxy]-2-ethyl-3,4,10-trihydroxy-3,5,8,10,12,14-hexamethyl-11-[[3,4,6-trideoxy-3-(dimethylamino)-β-D-xylo-hexopyranosyl]oxy]-1-oxa-6-azacyclopentadecan-15-one diphosphate] |  |  |  |  |  |  |  |  |  | hygroscopic
